ChEMBL document CHEMBL4265887 (Bioorg Med Chem Lett, 2018)
Converted amounts (≈) assume the structure as drawn. The source made the active and inactive calls. The calls are words filed in the database; no cut-off is given here.

Key:
[1] = test system: HCT-116; experiment: Cytotoxicity against human HCT116 cells assessed as reduction in cell viability after 48 hrs by MTT assay; type: functional, cell-based; conditions: HCT-116, 48 h
[2] = test system: HCT-116; experiment: Induction of apoptosis in human HCT116 cells at 100 nM after 72 hrs by Annexin V-FITC staining-based flow cytometric analysis; type: functional, cell-based
[3] = test system: HCT-116; experiment: Induction of apoptosis in human HCT116 cells at 1 uM after 72 hrs by Annexin V-FITC/propidium iodide staining-based flow cytometric analysis; type: functional, cell-based
[4] = molecular target: T1, Aurora kinase B (Homo sapiens, UniProt Q96GD4); experiment: Inhibition of Aurora B phosphorylation at Thr232 residue in human HCT116 cells over 100 nM after 3 hrs by Western blot method; type: cell-based
[5] = Solubility of the compound in phosphate buffer of pH 7.4 after 24 hrs by RP-HPLC analysis; type: physicochemical; conditions: phosphate buffer, pH 7.4
[6] = Solubility of the compound in phosphate buffer of pH 2 after 24 hrs by RP-HPLC analysis; type: physicochemical
[7] = test system: HCT-15; experiment: Cytotoxicity against human HCT15 cells assessed as reduction in cell viability after 48 hrs by MTT assay; type: functional, cell-based; conditions: HCT-15, 48 h
[8] = molecular target: T2, Aurora kinase A (Homo sapiens, UniProt O14965); experiment: Inhibition of recombinant Aurora A (unknown origin) using TAMRA-PKAtide as substrate after 30 mins by fluorescence polarization assay
T2 sequence (O14965 whole entry): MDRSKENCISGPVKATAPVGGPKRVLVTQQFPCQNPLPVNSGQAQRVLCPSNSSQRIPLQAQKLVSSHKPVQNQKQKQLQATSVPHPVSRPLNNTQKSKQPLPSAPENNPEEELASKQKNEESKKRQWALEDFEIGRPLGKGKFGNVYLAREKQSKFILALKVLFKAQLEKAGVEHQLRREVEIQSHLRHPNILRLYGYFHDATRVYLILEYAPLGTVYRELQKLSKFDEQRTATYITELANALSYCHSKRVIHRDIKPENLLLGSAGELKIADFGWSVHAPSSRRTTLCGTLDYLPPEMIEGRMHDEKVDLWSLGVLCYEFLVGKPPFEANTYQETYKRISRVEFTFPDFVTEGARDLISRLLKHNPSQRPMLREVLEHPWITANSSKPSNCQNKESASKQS

[9] = molecular target: T1, Aurora kinase B; experiment: Inhibition of recombinant Aurora B (unknown origin) using TAMRA-PKAtide as substrate after 1 hr by fluorescence polarization assay
[10] = test system: HCT-116; experiment: Inhibition of cytokinesis in human HCT116 cells at 100 nM after 24 hrs by propidium iodide/RNase staining-based flow cytometric analysis; type: functional, cell-based
[11] = test system: HCT-116; experiment: Inhibition of cytokinesis in human HCT116 cells at 1 uM after 24 hrs by propidium iodide/RNase staining-based flow cytometric analysis; type: functional, cell-based
[12] = molecular target: Tyrosine-protein kinase receptor UFO (Homo sapiens) (UniProt P30530); experiment: Inhibition of AXL (unknown origin) at 1 uM
[13] = molecular target: Vascular endothelial growth factor receptor 2 (Homo sapiens) (UniProt P35968); experiment: Inhibition of VEGFR2 (unknown origin) at 1 uM
[14] = molecular target: Proto-oncogene tyrosine-protein kinase Src (Homo sapiens) (UniProt P12931); experiment: Inhibition of c-Src (unknown origin) at 1 uM
[15] = molecular target: Tyrosine-protein kinase ABL1 (Homo sapiens) (UniProt P00519); experiment: Inhibition of ABL (unknown origin) at 1 uM
[16] = molecular target: Tyrosine-protein kinase JAK3 (Homo sapiens) (UniProt P52333); experiment: Inhibition of JAK3 (unknown origin) at 1 uM
[17] = molecular target: Proto-oncogene tyrosine-protein kinase receptor Ret (Homo sapiens) (UniProt P07949); experiment: Inhibition of RET (unknown origin) at 1 uM
[18] = molecular target: Serine/threonine-protein kinase PAK 4 (Homo sapiens) (UniProt O96013); experiment: Inhibition of PAK4 (unknown origin) at 1 uM
[19] = molecular target: High affinity nerve growth factor receptor (Homo sapiens) (UniProt P04629); experiment: Inhibition of TrkA (unknown origin) at 1 uM
[20] = molecular target: Platelet-derived growth factor receptor beta (Homo sapiens) (UniProt P09619); experiment: Inhibition of PDGFRbeta (unknown origin) at 1 uM
[21] = molecular target: Epithelial discoidin domain-containing receptor 1 (Homo sapiens) (UniProt Q08345); experiment: Inhibition of DDR1 (unknown origin) at 1 uM
[22] = molecular target: Fibroblast growth factor receptor 3 (Homo sapiens) (UniProt P22607); experiment: Inhibition of FGFR3 (unknown origin) at 1 uM
[23] = molecular target: Mast/stem cell growth factor receptor Kit (Homo sapiens) (UniProt P10721); experiment: Inhibition of c-KIT (unknown origin) at 1 uM
[24] = molecular target: Serine/threonine-protein kinase Chk1 (Homo sapiens) (UniProt O14757); experiment: Inhibition of CHK1 (unknown origin) at 1 uM
[25] = molecular target: Receptor-type tyrosine-protein kinase FLT3 (Homo sapiens) (UniProt P36888); experiment: Inhibition of FLT3 (unknown origin) at 1 uM
[26] = molecular target: Serine/threonine-protein kinase B-raf (Homo sapiens) (UniProt P15056); experiment: Inhibition of BRAF (unknown origin) at 1 uM
[27] = molecular target: Hepatocyte growth factor receptor (Homo sapiens) (UniProt P08581); experiment: Inhibition of c-MET (unknown origin) at 1 uM
[28] = molecular target: Cyclin-dependent kinase 4/cyclin D1 (Homo sapiens) (UniProt P11802+P24385); experiment: Inhibition of CDK4/Cyclin D1 (unknown origin) at 1 uM; type: protein-complex assay
[29] = molecular target: Angiopoietin-1 receptor (Homo sapiens) (UniProt Q02763); experiment: Inhibition of TIE2 (unknown origin) at 1 uM
[30] = molecular target: Serine/threonine-protein kinase pim-1 (Homo sapiens) (UniProt P11309); experiment: Inhibition of PIM1 (unknown origin) at 1 uM
[31] = molecular target: CDK2/Cyclin A2 (Homo sapiens) (UniProt P24941+P20248); experiment: Inhibition of CDK2/cyclin A (unknown origin) at 1 uM; type: protein-complex assay
[32] = molecular target: Insulin receptor (Homo sapiens) (UniProt P06213); experiment: Inhibition of INSR (unknown origin) at 1 uM
[33] = molecular target: Serine/threonine-protein kinase PAK 1 (Homo sapiens) (UniProt Q13153); experiment: Inhibition of PAK1 (unknown origin) at 1 uM
[34] = molecular target: Protein kinase C alpha type (Homo sapiens) (UniProt P17252); experiment: Inhibition of PKCalpha (unknown origin) at 1 uM
[35] = molecular target: Tyrosine-protein kinase CSK (Homo sapiens) (UniProt P41240); experiment: Inhibition of CSK (unknown origin) at 1 uM
[36] = molecular target: Tyrosine-protein kinase SYK (Homo sapiens) (UniProt P43405); experiment: Inhibition of SYK (unknown origin) at 1 uM
[37] = molecular target: Inhibitor of nuclear factor kappa-B kinase subunit beta (Homo sapiens) (UniProt O14920); experiment: Inhibition of IKKbeta (unknown origin) at 1 uM
[38] = molecular target: Interleukin-1 receptor-associated kinase 4 (Homo sapiens) (UniProt Q9NWZ3); experiment: Inhibition of IRAK4 (unknown origin) at 1 uM
[39] = molecular target: Death-associated protein kinase 3 (Homo sapiens) (UniProt O43293); experiment: Inhibition of ZIPK (unknown origin) at 1 uM
[40] = molecular target: Mitogen-activated protein kinase 3 (Homo sapiens) (UniProt P27361); experiment: Inhibition of ERK1 (unknown origin) at 1 uM
[41] = molecular target: Rho-associated protein kinase 2 (Homo sapiens) (UniProt O75116); experiment: Inhibition of ROCK2 (unknown origin) at 1 uM
[42] = molecular target: Serine/threonine-protein kinase mTOR (Homo sapiens) (UniProt P42345); experiment: Inhibition of mTOR (unknown origin) at 1 uM

T1 sequence (Q96GD4 whole entry): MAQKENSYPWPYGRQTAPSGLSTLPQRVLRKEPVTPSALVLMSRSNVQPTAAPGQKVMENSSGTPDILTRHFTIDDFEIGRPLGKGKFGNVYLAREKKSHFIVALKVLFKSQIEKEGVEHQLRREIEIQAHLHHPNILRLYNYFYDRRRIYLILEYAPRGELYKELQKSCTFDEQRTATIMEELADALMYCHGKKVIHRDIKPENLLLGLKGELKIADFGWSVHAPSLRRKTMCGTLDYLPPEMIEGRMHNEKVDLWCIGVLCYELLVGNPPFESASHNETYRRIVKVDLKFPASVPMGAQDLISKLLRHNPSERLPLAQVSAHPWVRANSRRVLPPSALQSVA
Sequence of Inhibitor of nuclear factor kappa-B kinase subunit beta (Homo sapiens) (O14920 whole entry): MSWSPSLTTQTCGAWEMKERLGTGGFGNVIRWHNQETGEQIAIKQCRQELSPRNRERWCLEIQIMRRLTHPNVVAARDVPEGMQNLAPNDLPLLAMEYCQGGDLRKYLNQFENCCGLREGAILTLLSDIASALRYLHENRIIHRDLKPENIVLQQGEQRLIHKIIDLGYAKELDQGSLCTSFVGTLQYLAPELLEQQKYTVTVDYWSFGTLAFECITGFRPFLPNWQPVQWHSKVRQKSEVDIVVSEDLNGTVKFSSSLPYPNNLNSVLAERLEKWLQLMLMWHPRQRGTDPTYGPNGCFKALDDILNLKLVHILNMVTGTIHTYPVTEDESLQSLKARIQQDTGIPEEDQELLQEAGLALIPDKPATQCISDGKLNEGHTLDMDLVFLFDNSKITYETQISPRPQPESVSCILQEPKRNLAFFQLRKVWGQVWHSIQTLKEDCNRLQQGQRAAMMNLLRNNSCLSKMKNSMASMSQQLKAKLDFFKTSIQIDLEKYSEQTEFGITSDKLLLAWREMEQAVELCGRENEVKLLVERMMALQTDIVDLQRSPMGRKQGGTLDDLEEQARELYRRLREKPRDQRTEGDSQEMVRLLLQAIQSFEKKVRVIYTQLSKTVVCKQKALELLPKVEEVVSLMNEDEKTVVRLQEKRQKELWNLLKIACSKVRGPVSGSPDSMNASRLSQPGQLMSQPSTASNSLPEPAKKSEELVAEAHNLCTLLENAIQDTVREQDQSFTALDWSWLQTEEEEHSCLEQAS
Sequence of Serine/threonine-protein kinase PAK 1 (Homo sapiens) (Q13153 whole entry): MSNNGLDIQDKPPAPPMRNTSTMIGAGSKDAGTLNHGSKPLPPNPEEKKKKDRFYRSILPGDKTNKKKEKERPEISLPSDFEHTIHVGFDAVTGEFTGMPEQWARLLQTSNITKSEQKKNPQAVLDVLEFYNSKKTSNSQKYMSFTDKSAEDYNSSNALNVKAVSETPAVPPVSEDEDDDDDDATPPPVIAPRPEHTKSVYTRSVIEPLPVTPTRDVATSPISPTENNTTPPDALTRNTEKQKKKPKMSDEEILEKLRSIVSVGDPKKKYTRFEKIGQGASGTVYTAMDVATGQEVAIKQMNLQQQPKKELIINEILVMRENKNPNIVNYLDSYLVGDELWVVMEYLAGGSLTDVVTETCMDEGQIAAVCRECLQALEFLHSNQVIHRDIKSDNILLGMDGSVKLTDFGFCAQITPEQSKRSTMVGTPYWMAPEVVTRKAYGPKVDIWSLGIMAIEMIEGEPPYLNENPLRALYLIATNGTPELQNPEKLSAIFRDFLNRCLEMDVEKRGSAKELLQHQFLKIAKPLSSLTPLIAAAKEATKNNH
Sequence of Receptor-type tyrosine-protein kinase FLT3 (Homo sapiens) (P36888 whole entry): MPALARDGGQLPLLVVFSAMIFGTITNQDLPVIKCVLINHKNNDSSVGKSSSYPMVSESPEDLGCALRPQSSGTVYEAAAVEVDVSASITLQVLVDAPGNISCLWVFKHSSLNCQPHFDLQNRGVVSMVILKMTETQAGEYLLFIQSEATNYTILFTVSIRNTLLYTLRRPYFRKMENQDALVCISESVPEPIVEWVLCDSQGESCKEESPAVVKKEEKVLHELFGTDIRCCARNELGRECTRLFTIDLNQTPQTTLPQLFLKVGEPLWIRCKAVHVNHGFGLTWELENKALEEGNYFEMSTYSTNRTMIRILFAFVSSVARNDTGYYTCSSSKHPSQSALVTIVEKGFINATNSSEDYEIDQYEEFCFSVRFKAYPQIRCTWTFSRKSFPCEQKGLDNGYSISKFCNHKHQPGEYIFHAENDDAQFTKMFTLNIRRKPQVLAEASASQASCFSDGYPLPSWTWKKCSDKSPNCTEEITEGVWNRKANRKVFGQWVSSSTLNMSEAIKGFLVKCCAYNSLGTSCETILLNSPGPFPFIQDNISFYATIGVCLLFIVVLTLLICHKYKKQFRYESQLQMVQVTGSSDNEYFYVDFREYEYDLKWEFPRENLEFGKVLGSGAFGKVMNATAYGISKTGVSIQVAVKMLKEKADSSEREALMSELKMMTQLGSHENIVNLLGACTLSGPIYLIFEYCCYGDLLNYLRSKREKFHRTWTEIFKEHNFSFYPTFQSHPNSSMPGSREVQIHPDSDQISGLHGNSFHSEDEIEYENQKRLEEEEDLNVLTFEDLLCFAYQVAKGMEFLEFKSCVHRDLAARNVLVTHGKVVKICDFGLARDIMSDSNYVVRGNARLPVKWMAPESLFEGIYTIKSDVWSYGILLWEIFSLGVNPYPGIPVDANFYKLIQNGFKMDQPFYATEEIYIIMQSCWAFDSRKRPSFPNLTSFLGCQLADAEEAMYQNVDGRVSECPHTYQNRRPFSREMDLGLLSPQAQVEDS
Sequence of Serine/threonine-protein kinase PAK 4 (Homo sapiens) (O96013 whole entry, looked up): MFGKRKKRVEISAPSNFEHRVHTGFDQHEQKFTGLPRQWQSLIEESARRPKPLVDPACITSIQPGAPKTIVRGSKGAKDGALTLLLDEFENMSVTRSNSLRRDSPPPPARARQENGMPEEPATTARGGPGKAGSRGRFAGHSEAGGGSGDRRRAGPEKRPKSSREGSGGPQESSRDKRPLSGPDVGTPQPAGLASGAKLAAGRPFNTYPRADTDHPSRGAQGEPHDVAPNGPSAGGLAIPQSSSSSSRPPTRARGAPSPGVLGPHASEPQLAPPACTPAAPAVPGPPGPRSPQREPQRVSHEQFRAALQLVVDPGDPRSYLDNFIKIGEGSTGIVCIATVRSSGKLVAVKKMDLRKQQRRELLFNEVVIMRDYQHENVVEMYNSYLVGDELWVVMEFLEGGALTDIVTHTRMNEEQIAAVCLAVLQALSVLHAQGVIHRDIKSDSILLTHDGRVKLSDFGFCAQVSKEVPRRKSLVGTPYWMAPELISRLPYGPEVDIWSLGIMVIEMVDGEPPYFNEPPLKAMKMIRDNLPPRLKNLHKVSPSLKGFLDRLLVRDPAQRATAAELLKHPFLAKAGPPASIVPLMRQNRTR
Sequence of Tyrosine-protein kinase CSK (Homo sapiens) (P41240 2-450 limits assumed): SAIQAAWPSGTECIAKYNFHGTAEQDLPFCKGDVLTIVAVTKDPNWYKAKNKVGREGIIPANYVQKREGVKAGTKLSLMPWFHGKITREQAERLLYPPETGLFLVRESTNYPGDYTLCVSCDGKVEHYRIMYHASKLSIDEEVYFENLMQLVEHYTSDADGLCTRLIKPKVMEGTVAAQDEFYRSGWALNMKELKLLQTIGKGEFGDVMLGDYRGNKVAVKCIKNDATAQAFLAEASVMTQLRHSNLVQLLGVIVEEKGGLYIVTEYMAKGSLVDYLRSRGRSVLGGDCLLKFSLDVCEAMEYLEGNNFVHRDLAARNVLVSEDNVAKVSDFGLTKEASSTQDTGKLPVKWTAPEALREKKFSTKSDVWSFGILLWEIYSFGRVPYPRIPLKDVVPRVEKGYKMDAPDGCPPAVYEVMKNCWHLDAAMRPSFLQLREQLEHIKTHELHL
Sequence of Tyrosine-protein kinase receptor UFO (Homo sapiens) (P30530 whole entry): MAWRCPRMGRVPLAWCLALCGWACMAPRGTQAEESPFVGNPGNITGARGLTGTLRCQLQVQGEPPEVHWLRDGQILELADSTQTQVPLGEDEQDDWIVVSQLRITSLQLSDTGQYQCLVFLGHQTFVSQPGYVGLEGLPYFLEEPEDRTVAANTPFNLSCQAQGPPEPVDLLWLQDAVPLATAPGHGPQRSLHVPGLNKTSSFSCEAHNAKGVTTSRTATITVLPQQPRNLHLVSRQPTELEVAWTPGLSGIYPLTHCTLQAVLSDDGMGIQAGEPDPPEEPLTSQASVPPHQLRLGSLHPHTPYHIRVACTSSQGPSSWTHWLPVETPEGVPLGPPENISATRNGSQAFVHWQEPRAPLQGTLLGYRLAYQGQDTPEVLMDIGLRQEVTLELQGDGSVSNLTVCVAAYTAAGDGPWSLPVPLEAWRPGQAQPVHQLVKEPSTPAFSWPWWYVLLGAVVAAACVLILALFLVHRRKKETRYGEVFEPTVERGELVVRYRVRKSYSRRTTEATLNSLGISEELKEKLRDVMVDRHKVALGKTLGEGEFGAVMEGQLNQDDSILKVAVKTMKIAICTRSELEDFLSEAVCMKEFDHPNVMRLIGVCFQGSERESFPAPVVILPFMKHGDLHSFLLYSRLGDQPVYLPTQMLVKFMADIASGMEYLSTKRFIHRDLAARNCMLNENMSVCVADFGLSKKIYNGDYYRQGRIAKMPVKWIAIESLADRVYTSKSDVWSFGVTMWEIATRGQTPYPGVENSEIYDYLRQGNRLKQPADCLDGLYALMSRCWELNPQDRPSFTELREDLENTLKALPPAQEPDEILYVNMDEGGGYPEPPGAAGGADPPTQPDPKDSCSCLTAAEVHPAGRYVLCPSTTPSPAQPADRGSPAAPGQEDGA
Sequence of Serine/threonine-protein kinase pim-1 (Homo sapiens) (P11309 whole entry, looked up): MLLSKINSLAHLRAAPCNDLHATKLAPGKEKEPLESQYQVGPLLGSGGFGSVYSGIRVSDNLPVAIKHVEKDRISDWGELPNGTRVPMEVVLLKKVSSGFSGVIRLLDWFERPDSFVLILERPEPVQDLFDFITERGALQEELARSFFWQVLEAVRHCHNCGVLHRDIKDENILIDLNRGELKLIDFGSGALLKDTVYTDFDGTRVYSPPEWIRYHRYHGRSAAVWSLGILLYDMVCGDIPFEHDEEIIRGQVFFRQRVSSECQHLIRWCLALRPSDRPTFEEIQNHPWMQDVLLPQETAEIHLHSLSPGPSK

In the case of `O=C(O)c1ccc(Nc2ncc3c(n2)-c2ccc(Cl)cc2C(c2c(F)cccc2F)=NC3)cc1` [MLN-8054], the IC50 [1] is reported as 850 nM, the Activity [2] is reported as “inactive” and the Activity [3] is reported as “inactive”. The inhibition [4] was “Active”, the solubility at 24 h [5] was 98.2 µM (≈ 46.9 µg/mL) and the solubility at 24 h [6] was 5.8 µM (≈ 2.77 µg/mL).
`CNC(=O)Nc1sc2c(C(C)C)cc(NS(=O)(=O)c3cccc(C)c3)cc2c1C(N)=O` showed an IC50 [1] of 470 nM, an IC50 [7] of 1680 nM and an IC50 [8] of 95 nM. For the same compound, the IC50 [9] was 46 nM, the Activity [2] was “Active” and the “Cytokinesis inhibition (active/inactive call)” value [10] was “Active”. For the same compound, the Activity [3] was “Active”, the “Cytokinesis inhibition (active/inactive call)” value [11] was “Active” and the solubility at 24 h [5] was 3.6 µM (≈ 1.66 µg/mL). It also gave a solubility at 24 h [6] of 2.6 µM (≈ 1.2 µg/mL).
For `CCCNS(=O)(=O)Nc1cc(C(C)C)c2sc(NC(=O)NC)c(C(N)=O)c2c1`, the IC50 [1] was 410 nM, the IC50 [7] was 4710 nM and the IC50 [8] was 21 nM. The IC50 [9] was 11 nM, the Activity [2] was “inactive” and the “Cytokinesis inhibition (active/inactive call)” value [10] was “Active”. The Activity [3] was “inactive” and the “Cytokinesis inhibition (active/inactive call)” value [11] was “Active”.
`CNC(=O)Nc1sc2c(C(C)C)cc(NS(=O)(=O)N(C)C)cc2c1C(N)=O` gave an IC50 [1] of 300 nM, an IC50 [7] of 1600 nM and an IC50 [8] of 9 nM. The IC50 [9] was 23 nM, the Activity [2] was “inactive” and the “Cytokinesis inhibition (active/inactive call)” value [10] was “Active”. For the same compound, the Activity [3] was “inactive”, the “Cytokinesis inhibition (active/inactive call)” value [11] was “Active” and the inhibition [4] was “Active”. The solubility at 24 h [5] was 13.1 µM (≈ 5.42 µg/mL), the solubility at 24 h [6] was 8 µM (≈ 3.31 µg/mL) and the inhibition [12] was 37.2%. For the same compound, the inhibition [13] was 68.2%, the inhibition [14] was 94.4% and the inhibition [15] was 88.8%. For the same compound, the inhibition [16] was 54.6%, the inhibition [17] was 97.2% and the inhibition [18] was 11.2%. The inhibition [19] was 46.9%, the inhibition [20] was 61.3% and the inhibition [21] was 75.9%. For the same compound, the inhibition [22] was 14.4%, the inhibition [23] was 28.9% and the inhibition [24] was 16.4%. It also gave an inhibition [25] of 46.6%, an inhibition [26] of -0.3% and an inhibition [27] of 2.76%. It also gave an inhibition [28] of 27%, an inhibition [29] of 0.75% and an inhibition [30] of 41.6%. For the same compound, the inhibition [31] was 22.8%, the inhibition [32] was 3% and the inhibition [33] was 5.28%. For the same compound, the inhibition [34] was 17.9%, the inhibition [35] was 19.5% and the inhibition [36] was 51.1%. For the same compound, the inhibition [37] was 30.7%, the inhibition [38] was 8.14% and the inhibition [39] was 39.6%. For the same compound, the inhibition [40] was 17.6%, the inhibition [41] was 15.7% and the inhibition [42] was 3.66%.
Compound `CNC(=O)Nc1sc2c(C(C)C)cc(NS(=O)(=O)c3ccn(C)n3)cc2c1C(N)=O` has an IC50 [1] of 560 nM, an IC50 [7] of 6130 nM and an IC50 [8] of 5 nM. For the same compound, the IC50 [9] was 17 nM, the Activity [2] was “Active” and the “Cytokinesis inhibition (active/inactive call)” value [10] was “Active”. The Activity [3] was “Active”, the “Cytokinesis inhibition (active/inactive call)” value [11] was “Active” and the solubility at 24 h [5] was 6.2 µM (≈ 2.79 µg/mL). The solubility at 24 h [6] was 4.2 µM (≈ 1.89 µg/mL).
For `CCS(=O)(=O)Nc1cc(C(C)C)c2sc(NC(=O)NC)c(C(N)=O)c2c1`, the IC50 [1] was 600 nM, the IC50 [7] was 4980 nM and the IC50 [8] was 24 nM. The IC50 [9] was 38 nM, the Activity [2] was “inactive” and the “Cytokinesis inhibition (active/inactive call)” value [10] was “Active”. For the same compound, the Activity [3] was “inactive”, the “Cytokinesis inhibition (active/inactive call)” value [11] was “Active” and the solubility at 24 h [5] was 13.6 µM (≈ 5.42 µg/mL). For the same compound, the solubility at 24 h [6] was 11.4 µM (≈ 4.54 µg/mL).
`CC(C)c1cc(NS(=O)(=O)c2ccccc2)cc2c(C(N)=O)c(NC(=O)C3CC3)sc12` showed an IC50 [1] of 1390 nM, an IC50 [8] of 827 nM and an IC50 [9] of 417 nM.
With `CNC(=O)Nc1sc2c(C(C)C)cc(NS(=O)(=O)c3ccccc3)cc2c1C(N)=O` the IC50 [1] was 310 nM, the IC50 [7] was 890 nM and the IC50 [8] was 37 nM. The IC50 [9] was 35 nM, the Activity [2] was “Active” and the “Cytokinesis inhibition (active/inactive call)” value [10] was “Active”. For the same compound, the Activity [3] was “Active”, the “Cytokinesis inhibition (active/inactive call)” value [11] was “Active” and the solubility at 24 h [5] was 1.7 µM (≈ 0.759 µg/mL). The solubility at 24 h [6] was 1.3 µM (≈ 0.581 µg/mL).
With `CNC(=O)Nc1sc2c(C(C)C)cc(NS(=O)(=O)c3cc(C)cs3)cc2c1C(N)=O` the IC50 [1] was 340 nM, the IC50 [7] was 1680 nM and the IC50 [8] was 80 nM. The IC50 [9] was 48 nM, the Activity [2] was “Active” and the “Cytokinesis inhibition (active/inactive call)” value [10] was “Active”. For the same compound, the Activity [3] was “Active”, the “Cytokinesis inhibition (active/inactive call)” value [11] was “Active” and the solubility at 24 h [5] was 1.4 µM (≈ 0.653 µg/mL). It also gave a solubility at 24 h [6] of 1.6 µM (≈ 0.747 µg/mL).
